Data taken from PubChem BioAssay AID328 (DTP/NCI, 2004).
Several values for one entry are separate records, joined by “and”; a condition that tells them apart may be missing. Equal entries are not always repeated. Toxic doses and inconclusive results are not listed.

Tested on: BDF1 mice, P388 leukemia ip, median survival T/C
Assay: NCI In Vivo Anticancer Drug Screen. Data for tumor model P388 Leukemia (intraperitoneal) in B6D2F1 (BDF1) mice
Conditions: endpoint: median survival time, higher = longer survival
Outline: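 In tumour-bearing mice, survival after compound treatment is set against the vehicle group and given as a quotient.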

[1] = dose: 25.0 mg/kg/injection, schedule: Q04DX003 (ip), vehicle: saline with Tween-80
[2] = dose: 50.0 mg/kg/injection, schedule: Q04DX003 (ip), vehicle: saline with Tween-80
[3] = dose: 100.0 mg/kg/injection, schedule: Q04DX003 (ip), vehicle: saline with Tween-80
[4] = dose: 200.0 mg/kg/injection, schedule: Q04DX003 (ip), vehicle: saline with Tween-80
[5] = dose: 400.0 mg/kg/injection, schedule: Q04DX003 (ip), vehicle: saline with Tween-80
[6] = dose: 100.0 mg/kg/injection, schedule: Q01DX009 (ip), vehicle: saline with Tween-80
[7] = dose: 25.0 mg/kg/injection, schedule: Q01DX009 (ip), vehicle: saline with Tween-80
[8] = dose: 100.0 mg/kg/injection, schedule: Q04DX003 (ip), vehicle: saline
[9] = dose: 100.0 mg/kg/injection, schedule: Q01DX009 (ip), vehicle: Klucel (hydroxypropylcellulose) (HPC)
[10] = dose: 200.0 mg/kg/injection, schedule: Q01DX009 (ip), vehicle: Klucel (hydroxypropylcellulose) (HPC)
[11] = dose: 400.0 mg/kg/injection, schedule: Q01DX009 (ip), vehicle: Klucel (hydroxypropylcellulose) (HPC)
[12] = dose: 100.0 mg/kg/injection, schedule: Q01DX001 (ip), vehicle: saline with Tween-80
[13] = dose: 200.0 mg/kg/injection, schedule: Q01DX001 (ip), vehicle: saline with Tween-80
[14] = dose: 400.0 mg/kg/injection, schedule: Q01DX001 (ip), vehicle: saline with Tween-80

With `O=C1CC2(C(=O)N1CN1CCN(c3ccc(F)cc3)CC1)c1ccccc1-c1ccccc12` (tested in a mixture with another compound) the T/C [1] was 101 % of control and 107 % of control and 121 % of control, the T/C [2] was 91 % of control and 101 % of control and the T/C [3] was 97 % of control and 105 % of control.

In the case of `O=C(Nc1cc(Cl)ccc1C(=O)O)c1cccc(C[n+]2ccccc2)c1`, the T/C (dose: 50.0 mg/kg/injection, schedule: Q01DX005 (ip), vehicle: saline with Tween-80) is reported as 111 % of control and the T/C (dose: 100.0 mg/kg/injection, schedule: Q01DX005 (ip), vehicle: saline with Tween-80) is reported as 111 % of control.

For `COc1cccc(CNc2cccc(Cl)c2Cl)c1OC`, the T/C [3] was 100 % of control, the T/C [4] was 104 % of control and the T/C [5] was 100 % of control.

With `O=C(CBr)N1CCC2(CC1)SSC1(CCN(C(=O)CBr)CC1)S2` the T/C (dose: 3.12 mg/kg/injection, schedule: Q01DX009 (ip), vehicle: saline with Tween-80) was 112 % of control, the T/C (dose: 6.25 mg/kg/injection, schedule: Q01DX009 (ip), vehicle: saline with Tween-80) was 95 % of control and 111 % of control and the T/C (dose: 10.0 mg/kg/injection, schedule: Q04DX003 (ip), vehicle: saline with Tween-80) was 122 % of control. For the same molecule, the T/C (dose: 20.0 mg/kg/injection, schedule: Q04DX003 (ip), vehicle: saline with Tween-80) was 120 % of control, the T/C [1] was 123 % of control and the T/C (dose: 40.0 mg/kg/injection, schedule: Q04DX003 (ip), vehicle: saline with Tween-80) was 114 % of control. For the same molecule, the T/C [2] was 113 % of control, the T/C [6] was 112 % of control and the T/C [3] was 118 % of control. The T/C [4] was 102 % of control.

`Cc1nc[nH]c1[N+](=O)[O-]` was tested, and the T/C [7] was 100 % of control and the T/C [6] was 86 % of control.

With `CCCCCCCCOB(OCCCCCCCC)OCCCCCCCC` the T/C [1] was 91 % of control, the T/C [2] was 100 % of control and the T/C [3] was 91 % of control and 100 % of control.

For `COC(=O)C(NC=O)C(=O)OC`, the T/C (dose: 100.0 mg/kg/injection, schedule: Q01DX009 (ip), vehicle: saline) was 100 % of control, the T/C [8] was 100 % of control and the T/C (dose: 200.0 mg/kg/injection, schedule: Q01DX009 (ip), vehicle: saline) was 114 % of control. For the same molecule, the T/C (dose: 200.0 mg/kg/injection, schedule: Q04DX003 (ip), vehicle: saline) was 90 % of control, the T/C (dose: 400.0 mg/kg/injection, schedule: Q01DX009 (ip), vehicle: saline) was 100 % of control and the T/C (dose: 400.0 mg/kg/injection, schedule: Q04DX003 (ip), vehicle: saline) was 90 % of control.

With `CCC(=O)NC(C(=O)NC(C(=O)NC(CC(C)C)C(O)CC(=O)NC(C)C(=O)NC(CC(C)C)C(O)CC(=O)O)C(C)C)C(C)C` (stereo not drawn) the T/C (dose: 12.5 mg/kg/injection, schedule: Q01DX009 (ip), vehicle: saline with Tween-80) was 100 % of control, the T/C [7] was 109 % of control and the T/C (dose: 50.0 mg/kg/injection, schedule: Q01DX009 (ip), vehicle: saline with Tween-80) was 109 % of control and 114 % of control. The T/C [6] was 94 % of control.

For `O=[N+]([O-])c1cccc(/C=C/c2ccccc2)c1`, the T/C (dose: 100.0 mg/kg/injection, schedule: Q01DX001 (ip), vehicle: Klucel (hydroxypropylcellulose) (HPC)) was 100 % of control, the T/C [9] was 95 % of control and the T/C (dose: 200.0 mg/kg/injection, schedule: Q01DX001 (ip), vehicle: Klucel (hydroxypropylcellulose) (HPC)) was 95 % of control. The T/C [10] was 95 % of control, the T/C (dose: 400.0 mg/kg/injection, schedule: Q01DX001 (ip), vehicle: Klucel (hydroxypropylcellulose) (HPC)) was 90 % of control and the T/C [11] was 90 % of control.

In the case of `CCCCCOc1cc(C(C)=O)cc(OC)c1OC(=O)c1cc([N+](=O)[O-])cc([N+](=O)[O-])c1`, the T/C [12] is reported as 100 % of control, the T/C [13] is reported as 90 % of control and the T/C [14] is reported as 90 % of control.

With `O=C(O)C1CCC=CCC1` the T/C (dose: 50.0 mg/kg/injection, schedule: Q04DX003 (ip), vehicle: other) was 100 % of control, the T/C (dose: 100.0 mg/kg/injection, schedule: Q04DX003 (ip), vehicle: other) was 100 % of control and the T/C (dose: 200.0 mg/kg/injection, schedule: Q04DX003 (ip), vehicle: other) was 109 % of control.

With `CCCCc1cc(O)c2c(c1O)C(=O)c1ccccc1C2=O` the T/C [12] was 104 % of control, the T/C [13] was 104 % of control and the T/C [14] was 90 % of control.

`Cc1ccc(N=Cc2ccccc2)cc1` was tested, and the T/C [9] was 95 % of control, the T/C (dose: 100.0 mg/kg/injection, schedule: Q04DX003 (ip), vehicle: Klucel (hydroxypropylcellulose) (HPC)) was 100 % of control and the T/C [10] was 100 % of control. For the same molecule, the T/C (dose: 200.0 mg/kg/injection, schedule: Q04DX003 (ip), vehicle: Klucel (hydroxypropylcellulose) (HPC)) was 108 % of control, the T/C [11] was 90 % of control and the T/C (dose: 400.0 mg/kg/injection, schedule: Q04DX003 (ip), vehicle: Klucel (hydroxypropylcellulose) (HPC)) was 108 % of control.

`Cc1ccc2oc(-c3ccccc3)c(O)c(=O)c2c1` was tested, and the T/C [6] was 95 % of control, the T/C (dose: 200.0 mg/kg/injection, schedule: Q01DX009 (ip), vehicle: saline with Tween-80) was 100 % of control and the T/C (dose: 400.0 mg/kg/injection, schedule: Q01DX009 (ip), vehicle: saline with Tween-80) was 90 % of control.

For `COc1ccc(-c2nc3c(=O)n(C)c(=O)n(C)c3nc2-c2ccc(OC)cc2)cc1`, the T/C (dose: 100.0 mg/kg/injection, schedule: Q04DX002 (ip), vehicle: saline with Tween-80) was 104 % of control, the T/C (dose: 200.0 mg/kg/injection, schedule: Q04DX002 (ip), vehicle: saline with Tween-80) was 97 % of control and the T/C (dose: 400.0 mg/kg/injection, schedule: Q04DX002 (ip), vehicle: saline with Tween-80) was 97 % of control.

For `CCOCCN1C=C/C(=C/C=C/c2cc[n+](CCOCC)c3ccccc23)c2ccccc21`, the T/C (dose: 0.22 mg/kg/injection, schedule: Q01DX009 (ip), vehicle: Klucel (hydroxypropylcellulose) (HPC)) was 100 % of control, the T/C (dose: 0.45 mg/kg/injection, schedule: Q01DX009 (ip), vehicle: Klucel (hydroxypropylcellulose) (HPC)) was 100 % of control and the T/C (dose: 0.9 mg/kg/injection, schedule: Q01DX009 (ip), vehicle: Klucel (hydroxypropylcellulose) (HPC)) was 105 % of control.

With `Cc1sc(C)c2c1C[Se]Cc1c(C)sc(C)c1C[Se]C2` the T/C (dose: 12.5 mg/kg/injection, schedule: Q01DX001 (ip), vehicle: saline with Tween-80) was 95 % of control, the T/C (dose: 25.0 mg/kg/injection, schedule: Q01DX001 (ip), vehicle: saline with Tween-80) was 107 % of control and the T/C (dose: 50.0 mg/kg/injection, schedule: Q01DX001 (ip), vehicle: saline with Tween-80) was 118 % of control.

In the case of `COC(=O)C(C#N)Cc1ccccc1Cl` (stereo not drawn), the T/C [2] is reported as 101 % of control, the T/C [3] is reported as 98 % of control and the T/C [4] is reported as 98 % of control. The T/C [5] was 97 % of control.

With `O=C(O)C(O)C(=O)O` the T/C [8] was 95 % of control.

`Nc1nc2c(c(=O)[nH]1)N(CCS(=O)(=O)F)C(CNc1ccc(C(=O)NC(CCC(=O)O)C(=O)O)cc1)CN2` (stereo not drawn) was tested, and the T/C (dose: 50.0 mg/kg/injection, schedule: Q04DX003 (ip), vehicle: sodium bicarbonate) was 105 % of control, the T/C (dose: 100.0 mg/kg/injection, schedule: Q04DX003 (ip), vehicle: sodium bicarbonate) was 99 % of control and the T/C (dose: 200.0 mg/kg/injection, schedule: Q04DX003 (ip), vehicle: sodium bicarbonate) was 99 % of control.

With `CCOC(=O)Nc1cc2c(c(N)n1)N=C(c1ccccc1)CN2` the T/C (dose: 1.0 mg/kg/injection, schedule: Q01DX009 (ip), vehicle: saline with Tween-80) was 115 % of control, the T/C (dose: 2.0 mg/kg/injection, schedule: Q01DX009 (ip), vehicle: saline with Tween-80) was 151 % of control and the T/C (dose: 3.0 mg/kg/injection, schedule: Q01DX009 (ip), vehicle: saline with Tween-80) was 151 % of control. The T/C (dose: 3.0 mg/kg/injection, schedule: Q04DX003 (ip), vehicle: saline with Tween-80) was 117 % of control.

With `Cc1ccc(C(O)(c2ccccc2)C2C(c3ccccc3)N2C2CCCCC2)cc1` (stereo not drawn) the T/C (dose: 50.0 mg/kg/injection, schedule: Q01DX001 (ip), vehicle: saline sonified) was 96 % of control, the T/C (dose: 100.0 mg/kg/injection, schedule: Q01DX001 (ip), vehicle: saline sonified) was 96 % of control and the T/C (dose: 200.0 mg/kg/injection, schedule: Q01DX001 (ip), vehicle: saline sonified) was 92 % of control.

With `ClC1OC(Cl)C(Cl)OC1Cl` (stereo not drawn) the T/C (dose: 6.25 mg/kg/injection, schedule: Q01DX009 (ip), vehicle: Klucel (hydroxypropylcellulose) (HPC)) was 105 % of control and the T/C (dose: 12.5 mg/kg/injection, schedule: Q01DX009 (ip), vehicle: Klucel (hydroxypropylcellulose) (HPC)) was 110 % of control.

For `O=C(C[n+]1ccc2ccccc2c1)c1ccccc1`, the T/C (dose: 12.5 mg/kg/injection, schedule: Q04DX003 (ip), vehicle: saline with Tween-80) was 100 % of control, the T/C [1] was 100 % of control and the T/C [2] was 100 % of control.

`O=P(OCc1ccccc1)(N(CCCl)CCCl)N1CCN(P(=O)(OCc2ccccc2)N(CCCl)CCCl)CC1` (stereo not drawn) was tested, and the T/C (dose: 132.0 mg/kg/injection, schedule: Q04DX003 (ip), vehicle: saline with Tween-80) was 172 % of control and the T/C [4] was 154 % of control and 172 % of control.
